In ChEMBL document CHEMBL4765481, “Sialyltransferase Inhibitors Suppress Breast Cancer Metastasis” (J Med Chem, 2021):
Calls of active or inactive are those of the source. The calls are words filed in the database; no cut-off is given here.

What was measured:
MDA-MB-231 [1] = assay: Inhibition of serum-induced cell migration of human MDA-MB-231 cells incubated for 16 hrs by Boyden chamber assay; assay type: functional, cell-based; conditions: MDA-MB-231, 16 h
[2] = target: T1, Sialyltransferase ST3Gal-I (Rattus norvegicus) (UniProt Q6H8N0); assay: Inhibition of rat alpha-2,3-O-ST3GALI assessed as reduction in sialylated-product formation at 1 mM using p-nitrophenyl T-antigen and CMP-NeuSAc incubated for 15 mins by reverse-phase HPLC analysis relative to control
T1 sequence (whole entry): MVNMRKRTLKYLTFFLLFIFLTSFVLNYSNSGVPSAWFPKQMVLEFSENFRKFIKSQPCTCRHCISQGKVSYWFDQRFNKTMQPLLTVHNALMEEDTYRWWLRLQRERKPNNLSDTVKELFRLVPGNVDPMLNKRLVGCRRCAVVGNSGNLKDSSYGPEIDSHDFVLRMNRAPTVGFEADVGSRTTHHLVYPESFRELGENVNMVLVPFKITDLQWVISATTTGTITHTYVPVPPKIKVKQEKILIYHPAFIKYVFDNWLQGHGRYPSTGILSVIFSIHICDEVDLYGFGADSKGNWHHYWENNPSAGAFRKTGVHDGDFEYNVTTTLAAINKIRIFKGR

MDA-MB-231 [3] = assay: Inhibition of Sialyltransferase in human MDA-MB-231 cells assessed as reduction in IKKalpha/beta Ser176/180 phosphorylation level at 10 to 20 uM incubated for 48 hrs by immunoblot analysis; assay type: cell-based; conditions: dose 10-20 µM
[4] = Toxicity in transgenic zebrafish embryos assessed as effect on gross morphology at 20 uM measured at 30 hrs postfertilization by fluorescence microscopy; set-up: species or system Danio rerio; conditions: in vivo
[5] = Apparent permeability at pH 7.4 by PAMPA
MDA-MB-231 [6] = assay: Inhibition of Sialyltransferase in human MDA-MB-231 cells assessed as reduction in FAK Tyr576/577 phosphorylation level at 10 to 20 uM incubated for 48 hrs by immunoblot analysis; assay type: cell-based; conditions: dose 10-20 µM
[7] = Toxicity in human MDA-MB-231 cells assessed as cell survival at >60 uM relative to control; assay type: cell-based; conditions: read-out: Survival
[8] = Toxicity in BALB/c mouse xenografted with luciferase-tagged human MDA-MB-231 cells assessed as effect on body weight at 10 mg/kg/3 days, ip measured after 8 weeks; assay type: organism-based; conditions: in vivo, 1344 h
MDA-MB-231 [9] = assay: Antitumor activity against luciferase-tagged human MDA-MB-231 cells xenografted in BALB/c mouse assessed as induction of tumor suppression at 10 mg/kg/3 days, ip measured after 8 weeks; assay type: functional, organism-based
[10] = Toxicity in BALB/c mouse xenografted with luciferase-tagged human MDA-MB-231 cells at 10 mg/kg/3 days, ip measured after 8 weeks by blood tests; assay type: organism-based; conditions: in vivo, 1344 h
[11] = target: T2, Beta-galactoside alpha-2,6-sialyltransferase 1 (Homo sapiens, UniProt P15907); assay: Inhibition of human alpha-2,6-ST6GAL1 assessed as reduction in sialylated-product formation using Gal-beta1-4GlcNac and CMP-NeuSAc incubated for 15 mins by reverse-phase HPLC analysis
T2 sequence (P15907 whole entry): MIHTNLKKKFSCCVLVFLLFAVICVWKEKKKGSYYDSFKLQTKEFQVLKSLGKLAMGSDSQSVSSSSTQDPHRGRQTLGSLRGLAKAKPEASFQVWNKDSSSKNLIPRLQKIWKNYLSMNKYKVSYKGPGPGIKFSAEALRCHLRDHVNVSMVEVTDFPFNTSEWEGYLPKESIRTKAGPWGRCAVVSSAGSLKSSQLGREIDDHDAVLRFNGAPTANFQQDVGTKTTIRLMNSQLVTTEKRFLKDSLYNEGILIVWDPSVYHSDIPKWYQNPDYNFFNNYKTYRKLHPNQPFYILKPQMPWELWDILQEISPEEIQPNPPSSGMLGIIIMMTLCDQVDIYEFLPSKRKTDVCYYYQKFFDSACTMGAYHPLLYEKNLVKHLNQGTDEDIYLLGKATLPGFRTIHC

## C[C@H](CCC(=O)OCCOCCOCCN=[N+]=[N-])[C@H]1CC[C@H]2[C@@H]3CC[C@@H]4C[C@H](OC(=O)[C@H](CC(=O)O)Nc5ccc([N+](=O)[O-])c6nonc56)CC[C@]4(C)[C@H]3CC[C@]12C
MDA-MB-231 [1]
  IC50: 10.6 µM
[2]
  inhibition: 60%
MDA-MB-231 [3]
  inhibition: Active
[4]
  Activity: Non-Toxic
[5]
  Papp: 3.6 ×10⁻⁶ cm/s
MDA-MB-231 [6]
  inhibition: Dose-dependent effect
[7]
  viability: > 90%
[8]
  Activity: Non-Toxic
MDA-MB-231 [9]
  Activity: Active
[10]
  Activity: Non-Toxic
[11]
  IC50: 3.6 µM
